Experimental findings from patent publication US9061967B2 (priority 2010, dated 2015) are described below.

For orientation: inhibition means the share of the control response that was lost under treatment.

The subject of experiment [1] is rice blast (Magnaporthe grisea). Description: microbe, parasite or virus in culture. Format: cell-based. Conditions: for Activity against rice blast in vitro (%): Table 10; for inhibition at 0.03 µg/mL / inhibition at 0.3 µg/mL: Pyricularia oryzae, read-out: Inhibition rate against rice blast (%).
Experiment [2] concerns cucumber gray mold (Botrytis cinerea). As to the kind of experiment: microbe, parasite or virus in culture. Format: cell-based. Conditions: read-out: Inhibition rate against cucumber gray mold (%).
In experiment [3] the test system is cucumber downy mildew (Pseudoperonospora cubensis). Description: whole plant or invertebrate. The following applies: for pest or weed control at 3.125 µg/mL / pest or weed control at 12.5 µg/mL / pest or weed control at 50 µg/mL: Pseudoperonospora cubensis, 168 h, read-out: Protectant activity (%) against cucumber downy mildew in vivo. Format: in vivo.
The test system of experiment [4] is corn rust (Puccinia sorghi).
The subject of experiment [5] is rice sheath blight (Rhizoctonia solani Palo). Format: cell-based.
The subject of experiment [6] is cucumber fusarium wilt (Fusarium oxysporum f. sp.). The experiment is classed as cell-based.
The test system of experiment [7] is pear scab (Fusicladium pirina). The experiment is classed as cell-based.
Experiment [8] deals with cotton nthracnose (Colletotrichum gossypii Southw.). Format: cell-based.
The test system of experiment [9] is rape sclertiniose (Sclerotinia sclerotiorum). Format: cell-based.

Values joined by “and” are separate entries in the source; they are usually repeats but may differ in a detail not shown here. Identical values can stand only once.

As to `Cc1cc([N+](=O)[O-])cc([N+](=O)[O-])c1Nc1c(Cl)cc(Cl)cc1Cl` [contrast ACS], in [1] (0.9 mg/L), the “Activity against rice blast in vitro (%)” value was found to be 0%. Also, the “Activity against rice blast in vitro (%)” value in [1] (2.8 mg/L) was 0%. Also, the “Activity against rice blast in vitro (%)” value in [1] (8.3 mg/L) worked out at 0%. Besides, the “Activity against rice blast in vitro (%)” value in experiment [1] (25 mg/L) worked out at 0%. Also, in experiment [1], the inhibition at 0.03 µg/mL came to 0% and the inhibition at 0.3 µg/mL amounted to 0%. In addition, in [2], the inhibition at 0.03 µg/mL came out at 0%, the inhibition at 0.1 µg/mL worked out at 0% and the inhibition at 0.3 µg/mL was found to be 0%. Also, in experiment [3], the pest or weed control at 3.125 µg/mL is 0%, the pest or weed control at 12.5 µg/mL was determined as 0% and the pest or weed control at 50 µg/mL was found to be 0%. Also, the “Protectant activity against cucumber downy mildew in vivo (%)” value in experiment [3] (in vivo) is reported as 0%. The “Protectant activity (%) against corn rust in vivo” value in experiment [4] was 0%.
Take `COc1ccc(C(=CC(=O)N2CCOCC2)c2ccc(Cl)cc2)cc1OC` [dimethomorph]: in [3], the pest or weed control at 3.125 µg/mL was determined as 35%, the pest or weed control at 12.5 µg/mL worked out at 80% and the pest or weed control at 50 µg/mL worked out at 100%.
Regarding `c1ccc(Nc2ccccc2)cc1` [diphenylamine], in experiment [3], the pest or weed control at 3.125 µg/mL worked out at 0%, the pest or weed control at 12.5 µg/mL is 0% and the pest or weed control at 50 µg/mL amounted to 0%.
With `O=[N+]([O-])c1cc(C(F)(F)F)c(Cl)c([N+](=O)[O-])c1Nc1ncc(C(F)(F)F)cc1Cl` [fluazinam], in [1], the inhibition at 0.03 µg/mL was found to be 50% and the inhibition at 0.3 µg/mL is 100%. In addition, in experiment [2], the inhibition at 0.03 µg/mL was determined as 0%, the inhibition at 0.1 µg/mL was 80% and the inhibition at 0.3 µg/mL was found to be 100%. Also, in [3], the pest or weed control at 3.125 µg/mL was found to be 40%, the pest or weed control at 12.5 µg/mL is 95% and the pest or weed control at 50 µg/mL turned out to be 100%. The “Activity in vitro (%), rice sheath blight” value in [5] was 97% and 83% and 69%. The “Activity in vitro (%), cucumber fusarium wilt” value in experiment [6] was 92% and 85% and 56%. In addition, the “Activity in vitro (%), pear scab” value in experiment [7] is 94% and 89% and 47%. In addition, the “Activity in vitro (%), cotton nthracnose” value in experiment [8] is 100% and 97% and 71%. In experiment [9], the “Activity in vitro (%), rape sclertiniose” value was 100% and 97% and 57%.
As for `Cc1c(Cl)c([N+](=O)[O-])cc([N+](=O)[O-])c1Cl` [intermediate B], in [3], the pest or weed control at 3.125 µg/mL came out at 0%, the pest or weed control at 12.5 µg/mL turned out to be 0% and the pest or weed control at 50 µg/mL stood at 0%.
For `Nc1c(Cl)cc([N+](=O)[O-])cc1Cl` [intermediate C], in experiment [3], the pest or weed control at 3.125 µg/mL was 0%, the pest or weed control at 12.5 µg/mL came out at 0% and the pest or weed control at 50 µg/mL was 0%.
